Reference: paper doi:10.1101/2023.02.27.530254, “Large library docking for cannabinoid-1 receptor agonists with reduced side effects” (bioRxiv, 2024)
“And” between values parts separate entries of the source, which are not always exact repeats. Equal entries are not always repeated.

Assays:
[1] = tested on: C56BL/6 mice; test: Conditioned place preference; settings: mouse, in vivo
Description: To determine if ‘4042 was inherently rewarding or aversive we used the conditioned place paradigm as described. Briefly, mice were first habituated to the test apparatus, twice, and their preference for each chamber recorded for 30 minutes (Pretest). Two conditioning days followed in which mice received the vehicle control or the compound, and 30 minutes later restricted for 30 minutes in the preferred or non-preferred chamber, respectively. On day 5 (Test day), mice were allowed to roam freely between the 3 chambers of the apparatus and their preference for each chamber recorded for 30 minutes. To calculate the CPP score, we subtracted the time spent in each chamber of the box on the Pretest day from that of the Test day (CPP score = Test - Pretest).

[2] = molecular target: T1, CB1 (Rattus norvegicus, UniProt P20272); test: Radioligand competition binding with [3H]-CP-55,940, rat brain membranes; settings: for Ki: [3H]-CP-55,940 competition, rat brain membranes
T1 construct: membrane preparations from rat brain (source of CB1); tissue Bioivt RAT00BRAINMZN; host or cells: rat brain
Description: The results were analyzed using nonlinear regression to determine the IC50 and Ki values for each ligand (Prism by GraphPad Software, Inc., San Diego, CA). The Ki values are expressed as the mean of two to three experiments each performed in triplicate.

[3] = molecular target: T2, CB1R (Homo sapiens, UniProt P21554, C107A/C139A/C149A/C238A/C355A/C382A/C386A/C415A/C431A/C449A/C98A/R336C); test: Bimane fluorescence of TM6-labeled minimal cysteine CB1R; type: biochemical; settings: 10 μM ligand; apo 459 nm
T2 construct: N-terminal FLAG tag and C-terminal histidine tag was added to human full-length CB1; FLAG (N); histidine tag (C); made in house; host or cells: Spodoptera frugiperda Sf9 (baculovirus)
Description: A minimal cysteine version of CB1R was generated[73] where all the cysteine residues (except C256 and C264) were mutated to alanine. […] Excess label was removed using size exclusion chromatography on a Superdex 200 10/300 Increase column in 20 mM HEPES pH 7.5, 100 mM NaCl and 0.01% MNG/0.001% CHS. Bimane-labeled CB1R at […] was incubated with ligands (10 μM) for one hour at room temperature. Fluorescence data was collected at room temperature in a 150 μL cuvette with a FluorEssence v3.8 software on a Fluorolog instrument (Horiba) in photon-counting mode. Bimane fluorescence was measured by excitation at 370 nm with excitation and emission bandwidth passes of 4 nm. The emission spectra were recorded from 410 to 510 nm with 1 nm increment and 0.1 s integration time.

[4] = molecular target: T3, hCB1 (Homo sapiens, UniProt P21554); test: Lance Ultra cAMP accumulation assay (inhibition of forskolin-stimulated cAMP), CHO cells; type: cell-based; parameters: expressed in transfected cells
Description: The inhibition of forskolin-stimulated cAMP accumulation assays was carried out using PerkinElmer’s Lance Ultra cAMP kit following the manufacturer’s protocol. In brief, CHO cells stably expressing human CB1R were harvested by incubation with Versene (ThermoFisher Scientific, Waltham, MA) for 10 min, washed once with Hank’s Balanced Salt Solution, and resuspended in stimulation buffer at ~200 cells/μL density. The ligands at eight different concentrations (0.001–10,000 nM) in stimulation buffer (5 μL) containing forskolin (2 μM final concentration) were added to a 384-well plate followed by the cell suspension (5 μL; ~1000 cells/well). The plate was incubated for 30 min at room temperature. Eu-cAMP tracer (5 μL) and Ulight-anti-cAMP (5 μL) working solutions were then added to each well, and the plate was incubated at room temperature for an additional 60 min. Results were measured on a Perkin-Elmer EnVision plate reader. The EC50 values were determined by nonlinear regression analysis using Prism software (GraphPad Software, Inc., San Diego, CA) and are expressed as the mean of three experiments, each performed in triplicate.

[5] = molecular target: T3, hCB1; test: bioSens-All ebBRET effector biosensor signaling profiling, HEK293; type: cell-based; parameters: host or cells: HEK293 (HEK293SL clone), transient
Description: ebBRET-based effector membrane translocation biosensor assays were conducted at Domain Therapeutics NA Inc. (Montreal, QC, Canada) as previously described. […] HEK293 cells were maintained in Dulbecco’s Modified Eagle Medium (DMEM) (Wisent) supplemented with 1% penicillin- streptomycin (Wisent) and 10% (or 2 % for transfection) fetal bovine serum (Wisent) at 37°C with 5% CO2. All biosensor-coding plasmids and related information are the property of Domain Therapeutics NA Inc. The total amount of transfected DNA was adjusted and kept constant at 1 μg per mL of cell culture to be transfected using salmon sperm DNA (Invitrogen) as ‘carrier’ DNA, PEI (polyethylenimine 25 kDa linear, PolyScience) and DNA (3:1 ml PEI:mg DNA ratio) were first diluted separately in 150 mM NaCl then mixed and incubated for at least 20 minutes at room temperature to allow for the formation of DNA/PEI complexes. During the incubation, HEK293 cells were detached, counted, and re-suspended in maintenance medium to a 350,000 cells per mL density. At the end of the incubation period, the DNA/PEI mixture was added to the cells. Cells were finally distributed in 96-well plates (White Opaque 96-well /Microplates, Greiner) at a density of 35,000 cells per well. Forty-eight hours post-transfection, medium was aspirated and replaced with 100 μl of Hank’s Balanced Salt Solution buffer (HBSS) (Wisent) per well using 450-Select TS Biotek plate washer. After 60 min incubation in this medium, 10 μL of 10 μM e-Coelenterazine Prolume Purple (Methoxy e-CTZ) (Nanolight) was added to each well for a final concentration of 1 μM immediately followed by addition of increasing concentrations of the test compounds to each well using the HP D300 digital dispenser (Tecan). All compounds were assayed at 22 concentrations with each biosensor after a 10-minute room temperature incubation period. […] All BRET ratios were standardized using the universal BRET (uBRET) equation: uBRET=BRETratio-A/B-A×10,000 where A is the BRET ratio obtained from transfection of negative control and B is the BRET ratio obtained from transfection of positive control. […] The data were analyzed using the four-parameter logistic non-linear regression model in GraphPad Prism 9.1 and data were presented as means ± CIs of 1–4 independent experiments.
The SEM was calculated for the logEmax/EC50 ratios using the following equation: SEM=σ/n where σ is the standard deviation, and n is the number of experiments.

T1 sequence (P20272 whole entry): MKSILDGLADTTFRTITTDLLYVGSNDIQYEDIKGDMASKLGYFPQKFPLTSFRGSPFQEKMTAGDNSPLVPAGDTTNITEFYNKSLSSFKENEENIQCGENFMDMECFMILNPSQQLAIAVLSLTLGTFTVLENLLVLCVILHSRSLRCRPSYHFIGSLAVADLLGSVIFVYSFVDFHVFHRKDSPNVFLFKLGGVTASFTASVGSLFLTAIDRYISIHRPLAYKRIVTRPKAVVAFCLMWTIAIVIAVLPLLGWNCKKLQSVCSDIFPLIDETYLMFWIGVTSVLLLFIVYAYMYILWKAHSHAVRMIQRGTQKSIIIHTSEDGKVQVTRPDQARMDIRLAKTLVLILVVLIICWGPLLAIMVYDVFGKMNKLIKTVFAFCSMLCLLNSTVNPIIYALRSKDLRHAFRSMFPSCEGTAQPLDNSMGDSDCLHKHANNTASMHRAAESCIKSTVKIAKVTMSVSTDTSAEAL
T3 sequence (P21554 whole entry): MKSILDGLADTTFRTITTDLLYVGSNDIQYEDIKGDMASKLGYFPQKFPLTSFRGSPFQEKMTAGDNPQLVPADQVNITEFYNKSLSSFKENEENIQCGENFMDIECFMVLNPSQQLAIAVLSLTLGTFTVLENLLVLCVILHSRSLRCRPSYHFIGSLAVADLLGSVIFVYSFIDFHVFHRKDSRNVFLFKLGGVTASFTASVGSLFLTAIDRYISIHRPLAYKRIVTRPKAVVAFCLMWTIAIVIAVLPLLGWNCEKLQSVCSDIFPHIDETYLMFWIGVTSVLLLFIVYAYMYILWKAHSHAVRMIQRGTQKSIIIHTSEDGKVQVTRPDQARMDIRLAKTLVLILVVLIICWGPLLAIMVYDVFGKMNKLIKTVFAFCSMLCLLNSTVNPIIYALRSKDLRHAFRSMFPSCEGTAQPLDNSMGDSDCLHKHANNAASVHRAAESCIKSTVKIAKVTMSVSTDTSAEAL
T2 sequence (P21554 whole entry C98A/C107A/C139A/C149A/C238A/R336C/C355A/C382A/C386A/C415A/C431A/C449A): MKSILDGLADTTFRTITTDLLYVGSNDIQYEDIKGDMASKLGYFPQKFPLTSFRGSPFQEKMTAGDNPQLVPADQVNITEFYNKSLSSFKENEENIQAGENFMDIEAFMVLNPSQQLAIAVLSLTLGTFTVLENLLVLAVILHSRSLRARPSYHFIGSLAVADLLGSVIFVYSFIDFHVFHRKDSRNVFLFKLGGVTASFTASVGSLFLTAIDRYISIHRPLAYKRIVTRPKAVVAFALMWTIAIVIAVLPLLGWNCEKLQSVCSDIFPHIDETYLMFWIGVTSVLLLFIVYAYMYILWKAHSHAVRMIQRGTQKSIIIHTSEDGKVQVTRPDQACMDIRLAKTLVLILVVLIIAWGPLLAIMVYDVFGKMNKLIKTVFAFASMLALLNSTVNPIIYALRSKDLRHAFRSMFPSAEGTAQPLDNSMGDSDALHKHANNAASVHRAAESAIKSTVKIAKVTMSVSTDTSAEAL

SMILES | conditioned place preference [1] | Emax ([2]; maximal radioligand displacement, read-out: rCB1 binding Emax [SEM]) [%] | Ki ([2]; rCB1 binding Ki [95% CI]) | Ki ([2]; rCB1 binding pKi [95% CI]) [nM] | bimane spectrum λmax [3] [nm] | EC50 [4] [nM] | Emax ([4]; CHO, read-out: hCB1 Lance Ultra cAMP Emax [95% CI]) [%] | Emax ([5]; HEK293, read-out: hCB1 Gi1 Emax [95% CI]) [%] | Emax ([5]; HEK293, read-out: hCB1 GoB Emax [95% CI]) [%] | Emax ([5]; HEK293, read-out: hCB1 Gz Emax [95% CI]) [%] | EC50 ([5]; hCB1 Gi1 EC50 [95% CI], Gi1 sensor) [nM] | EC50 ([5]; hCB1 GoB EC50 [95% CI], GoB sensor) [nM] | EC50 ([5]; hCB1 GoB pEC50 [95% CI], GoB sensor) [nM] | EC50 ([5]; hCB1 Gz EC50 [95% CI], Gz sensor) [nM]
CN1CC[C@]23c4c5ccc(O)c4O[C@H]2[C@@H](O)C=C[C@H]3[C@H]1C5 [morphine, reference compound] | significantly increased their preference |  |  |  |  |  |  |  |  |  |  |  |  | 
COC(=O)[C@](C)(NC(=O)c1cc(C)n(-c2cccc(C(F)(F)F)c2)n1)c1cccs1 [‘8690] |  | 100 | 90 nM and 90.2 nM | 79.4 | 459 | 473 | 53 | 82 | 83 | 98 | 19.1 | 18 | 15.8 | 33
